The source of these data is PMC10823475, “Design, Synthesis, and Evaluation of Inhibitors of Hedgehog Acyltransferase” (Journal of Medicinal Chemistry, 2024).

Values joined by “and” are separate entries in the source; they are usually repeats but may differ in a detail not shown here. Identical values can stand only once.

A short description of series [1]: in vitro. To be noted: PAMPA.
Protocol: (§3) Passive diffusion was estimated using the PAMPA method. […] The donor plate was a MultiScreen-IP Plate with 0.45 μm hydrophobe Immobilon-P Membrane (Millipore, #MAIPNTR10) and the acceptor plate was a MultiScreen 96-well Transport Receiver Plate (Millipore, #MATRNPS50). […] Acceptor pH was 7.4. All samples were analyzed against an external, matrix-matched, standard curve by LC-MS/MS with a Waters (Elstree, Herts. UK) Acquity H-class LC system coupled to a Waters TQ-S mass spectrometer. Permeability values (cm/s) were calculated using the following equation: [drawing 2] and VD = volume of donor; VA = volume of acceptor; area = surface area of the membrane · porosity.
Series [2] addresses T1, purified HHAT (Homo sapiens, UniProt Q5VTY9).
T1 construct: made in house
Nature of the series: Acyl-cLIP assay, inhibition of purified HHAT. The class given is biochemical. To be noted: for LLEAcyl-cLIP: from Acyl-cLIP IC50 and clogDpH7.4; for IC50: purified HHAT, read-out: Acyl-cLIP Assay IC50 (CI95). The procedure, abridged: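 Fluorescence polarization of FAM-labelled SHH N-terminal peptide palmitoylated by DDM-solubilized purified recombinant HHAT with palmitoyl-CoA, pH 6.5 MES buffer, read over 30 min. Initial rates normalized to DMSO and no-enzyme controls; IC50 from variable-slope sigmoidal fit of 1:1 serial dilutions; single-point % inhibition at 50 and 25 μM.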

Series [3] in a line: MTS assay, cytotoxicity (72 h). The class given is cell-based. The settings on record: human, HEK293a SHH+ cells, 72 h; for CC50 at 72 h: read-out: MTS Assay (HEK293a SHH+) CC50 (CI95). Put shortly:
(§1)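 Cells plated at 5000/well, cultured 24 h, then exposed to analogues (0.14–100 μM final) in DMEM/10% FBS for 72 h. MTS/PMS added for 3 h at 37 °C and absorbance read at 490 nm; data normalised to DMSO vehicle and puromycin (2 μg/mL) wells, curves fitted with a variable-slope sigmoidal model.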

Series [4] relates to HEK293a SHH+ cells. Put plainly: MTS assay, cytotoxicity (72 h). The format is cell-based. To be noted: for CC50: 72 h, read-out: MTS Assay (HEK293a SHH+) CC50 (CI95); for decrease in cell viability / cell survival: 12.5 μM. Put shortly:
as §1

The subject of series [5] is HH signaling (HEK293a SHH+ conditioned media on SHH-Light2 cells). Put plainly: Light2 dual-luciferase cell-based HH signaling assay (Firefly). To be noted: Firefly luciferase, Light2 cells; read-out: HH signaling inhibition EC50 (CI95). As to the method: Subsequently, the effect of analogues on HH signaling was investigated using a cellular luciferase reporter assay. Light2 cells derived from NIH3T3 cells constitutively express Renilla luciferase as an internal control for cell density alongside Firefly luciferase under the control of a HH-responsive Gli promoter.[43] HEK293a SHH^+ cells were incubated with varying inhibitor concentrations and SHH-containing conditioned media transferred to the NIH3T3-Light2 cells to mimic paracrine signaling[30],[35] (Figure 6A).
The Light2 cell-based signaling assay has been described previously.[35] Briefly, HEK293a SHH^+ cells were plated at 120,000 cells/well of a 12-well plate in a volume of 1 mL/well and cultured as described above. After 24 h, cells were washed with PBS, followed by addition of 1 mL of media containing 0.2% DMSO or varying inhibitor concentrations in DMSO (0.041–30 μM final). Additionally, SHH-Light2 cells were plated at 20,000 cells/well of a 96-well plate in 50 μL media. After another 24 h, 300 μL of the conditioned media were collected from each well of the treated HEK293a SHH^+ cells, centrifuged at 1000g for 10 min to remove detached cells and split into three wells of the SHH-Light2 cells (100 μL/well; 150 μL final volume in each well). The treated Light2 cells were cultured for another 48 h and subsequently washed with PBS. Firefly and Renilla luciferase activity was measured using the Dual-Luciferase reporter system (Promega Corporation, USA). Then 20 μL of 1× passive lysis buffer were added to each well. After 30 min at RT, 5 μL of each lysate were transferred to a white opaque 96-well plate. Then 20 μL/well of luciferase assay reagent II was added and the luminescence immediately recorded using a SpectraMax i3x plate reader (Molecular Devices LLC). Subsequently, 20 μL/well of 1× Stop&Glo substrate in Stop&Glo buffer was added and the luminescence immediately recorded for a second time. Data was evaluated using a “sigmoidal dose response (variable slope)” model in GraphPad Prism 5 (GraphPad Software, Inc.). The luminescence signal of the Firefly luciferase was normalized to the DMSO vehicle (100%) and the unconditioned media (0%) controls.

A short description of series [6]: Microsomal incubations, mouse liver microsomes. The format is in vitro ADME. To be noted: 1 μM. On the procedure: (§2) Metabolic stability assays were performed using a Microlab Star liquid handling workstation (Hamilton Robotics, Bonaduz, Switzerland). Test compounds (1 μM, 1% DMSO) were preincubated at 37 °C for 10 min in 0.5 mg/mL female CD1 mouse and mixed gender human liver microsomes in 10 mM phosphate buffered saline (PBS; Sigma-Aldrich Company Ltd. (Dorset, UK)). Microsomes were purchased either from Sekisui XenoTech, LLC (Kansas City, USA) or BioreclamationIVT (Frankfurt Am Main, Germany). Reactions were initiated by the addition of NADPH (final concentration 1 mM). At 0, 15, and 30 min, aliquots were removed from each incubation and quenched in 3 volumes of ice-cold methanol containing olomoucine (Sigma-Aldrich, Dorset, UK) as an internal standard. […] The percentage metabolized was calculated by comparing peak area ratio (peak area test compound/peak area of internal standard) at t = 15 and 30 min versus t = 0 min.

The nature of series [7]: Microsomal incubations, human liver microsomes. The format is in vitro ADME. To be noted: 1 μM. On the procedure:
as §2

The nature of series [8]: PAMPA parallel artificial membrane permeability assay. To be noted: for recovery at 16 h, 10 µM / Papp at 16 h, 10 μM: PAMPA.
Protocol: as §3
[9] abbreviates: pH 5, PAMPA Papp pH 5, donor pH 5, 10 µM.
Setting [10] is: pH 5, PAMPA Permeability Class pH 5, donor pH 5, 10 µM.
[11] abbreviates: pH 6.5, PAMPA Papp pH 6.5, donor pH 6.5, 10 µM.
Where [12] appears, read: pH 6.5, PAMPA Permeability Class pH 6.5, donor pH 6.5, 10 µM.
[13] abbreviates: pH 7.4, PAMPA Papp pH 7.4, donor pH 7.4, 10 µM.

T1 sequence (Q5VTY9 whole entry): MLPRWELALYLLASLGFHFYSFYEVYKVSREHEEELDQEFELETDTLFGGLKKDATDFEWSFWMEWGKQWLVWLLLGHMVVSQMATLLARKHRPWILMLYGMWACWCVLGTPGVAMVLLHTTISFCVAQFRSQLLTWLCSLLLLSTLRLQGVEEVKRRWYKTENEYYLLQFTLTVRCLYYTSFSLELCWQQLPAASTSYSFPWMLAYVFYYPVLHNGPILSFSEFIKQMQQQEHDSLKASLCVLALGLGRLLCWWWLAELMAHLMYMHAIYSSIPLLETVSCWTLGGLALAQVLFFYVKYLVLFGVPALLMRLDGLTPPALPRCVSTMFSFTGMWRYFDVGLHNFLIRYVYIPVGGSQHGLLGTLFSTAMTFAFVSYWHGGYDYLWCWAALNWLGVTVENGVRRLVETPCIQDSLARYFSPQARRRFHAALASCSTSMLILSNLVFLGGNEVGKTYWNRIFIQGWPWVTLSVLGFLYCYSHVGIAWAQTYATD

`Cc1cc(=O)n(-c2ccccc2)n1C` [Antipyrine]: the recovery at 16 h, 10 µM in series [1] (pH 5) was 109%; in series [1] (pH 6.5) it was 119%; in series [1] (pH 7.4) it was 145%. The Papp at 16 h, 10 μM was 6.5 ×10⁻⁶ cm/s in series [1] (pH 5, PAMPA Papp pH 5); 5 to 20 ×10⁻⁶ cm/s in series [1] (pH 5, PAMPA Permeability Class pH 5); 6.6 ×10⁻⁶ cm/s in series [1] (pH 6.5, PAMPA Papp pH 6.5); 5 to 20 ×10⁻⁶ cm/s in series [1] (pH 6.5, PAMPA Permeability Class pH 6.5); 7.3 ×10⁻⁶ cm/s in series [1] (pH 7.4, PAMPA Papp pH 7.4); 5 to 20 ×10⁻⁶ cm/s in series [1] (pH 7.4, PAMPA Permeability Class pH 7.4).

Take `CCC(C)CNCC(=O)N1CCc2sccc2C1c1ccccc1OC` (stereo not drawn) [Compound 32, 1-(4-(2-Methoxyphenyl)-6,7-dihydrothieno[3,2-c]pyridin-5(4H)-yl)-2-((2-methylbutyl)amino)ethan-1-one]: in series [2], 25 µM produced 66 ± 2% inhibition, the inhibition at 50 µM came to 79 ± 2%, the LLEAcyl-cLIP was 3.00 and the IC50 came out at 8.09 µM. In series [3], the CC50 at 72 h stood at 7.6 µM; the viability at 72 h, 12.5 µM came to 55 ± 3%; the viability at 72 h, 25 µM was 42 ± 2%. Further, the “toxicity to HEK293a SHH+ cells” value in series [4] is “toxic”. In series [5], the EC50 was more than 30 µM.

`CC(=O)N1CCc2ccccc2C1c1ccccc1` (stereo not drawn) [Compound 37, 1-(1-Phenyl-3,4-dihydroisoquinolin-2(1H)-yl)ethan-1-one]: in series [2], 25 µM produced 55 ± 7% inhibition, the inhibition at 50 µM worked out at 53 ± 3% and the IC50 was more than 25 µM. Besides, in series [3], the half-maximal cytotoxic concentration (CC50) at 72 h was determined as 47.9 µM; the viability at 72 h, 12.5 µM turned out to be 101 ± 5%; the viability at 72 h, 25 µM was 94 ± 6%. Also, the CC50 in series [4] was more than 50 µM. Moreover, in series [6], the “MLM % metabolized after 15 min” value is 94.6% and > 90%; the “MLM % metabolized after 30 min” value stood at 99.8%. For the same molecule, in series [7], the “HLM % metabolized after 15 min” value is 45.2% and the “HLM % metabolized after 30 min” value came out at 55.9%. Moreover, the recovery at 16 h, 10 µM in series [8] (pH 5) is 95%. For the same molecule, the Papp at 16 h, 10 μM in series [8] (setting [9]) was more than 200 ×10⁻⁶ cm/s. This molecule also showed a Papp at 16 h, 10 μM in series [8] (setting [10]) of more than 20 ×10⁻⁶ cm/s. For the same molecule, the recovery at 16 h, 10 µM in series [8] (pH 6.5) was determined as 92%. Besides, the Papp at 16 h, 10 μM in series [8] (setting [11]) is more than 200 ×10⁻⁶ cm/s. The same molecule showed a Papp at 16 h, 10 μM in series [8] (setting [12]) of more than 20 ×10⁻⁶ cm/s. Also, in series [8] (pH 7.4), the recovery at 16 h, 10 µM came out at 89% and the “PAMPA passive permeability” value is given as “high passive permeability”. Besides, the Papp at 16 h, 10 μM in series [8] (setting [13]) was more than 200 ×10⁻⁶ cm/s. Besides, in series [8] (pH 7.4, PAMPA Permeability Class pH 7.4, donor pH 7.4, 10 µM), the Papp at 16 h, 10 μM is more than 20 ×10⁻⁶ cm/s. Further, the “PAMPA permeability” value in series [8] (over the full pH range tested) is reported as “high permeability”.

In the case of `CCC(C)CNCC(=O)N1CCc2ccccc2C1c1ccccc1` (stereo not drawn) [Compound 38, 2-((2-Methylbutyl)amino)-1-(1-phenyl-3,4-dihydroisoquinolin-2(1H)-yl)ethan-1-one], in series [2], 25 µM produced 91 ± 5% inhibition, the inhibition at 50 µM came to 95 ± 5%, the LLEAcyl-cLIP worked out at 2.82 and the IC50 is 7.01 µM. Moreover, in series [3], the CC50 at 72 h amounted to 8.1 µM; the viability at 72 h, 12.5 µM was determined as 69 ± 4%; the viability at 72 h, 25 µM was determined as 33 ± 6%. In series [4], the “toxicity to HEK293a SHH+ cells” value was “toxic”. In series [6], the “MLM % metabolized after 15 min” value is 100.0% and > 90%; the “MLM % metabolized after 30 min” value came to 100.0%. In series [7], the “HLM % metabolized after 15 min” value was found to be 30.3% and the “HLM % metabolized after 30 min” value was 49.2%. The recovery at 16 h, 10 µM in series [8] (pH 5) stood at 91%. Besides, the Papp at 16 h, 10 μM in series [8] (setting [9]) is 1.3 ×10⁻⁶ cm/s. Moreover, in series [8] (setting [10]), the Papp at 16 h, 10 μM is less than 5 ×10⁻⁶ cm/s. The molecule also registered a recovery at 16 h, 10 µM in series [8] (pH 6.5) of 45%. The molecule further yielded a Papp at 16 h, 10 μM in series [8] (setting [11]) of 24.4 ×10⁻⁶ cm/s. In series [8] (setting [12]), the Papp at 16 h, 10 μM was more than 20 ×10⁻⁶ cm/s. Further, in series [8] (pH 7.4), the recovery at 16 h, 10 µM was found to be 17% and the “PAMPA passive permeability” value is recorded as “high passive permeability”. In series [8] (setting [13]), this molecule gave a Papp at 16 h, 10 μM of 53.9 ×10⁻⁶ cm/s.

Take `CC(C)CNCC(=O)N1CCc2ccccc2C1c1ccccc1` (stereo not drawn) [Compound 39, 2-((2-Methylpropyl)amino)-1-(1-phenyl-3,4-dihydroisoquinolin-2(1H)-yl)ethan-1-one]: in series [2], the inhibition at 25 µM is 81 ± 2%, the inhibition at 50 µM worked out at 86 ± 1%, the LLEAcyl-cLIP is 3.30 and the IC50 was 6.02 µM. In addition, in series [3], the CC50 at 72 h is more than 50 µM; the viability at 72 h, 12.5 µM came out at 94 ± 3%; the viability at 72 h, 25 µM was 92 ± 4%. Further, in series [4], the “decrease in cell viability / cell survival” value was less than 30% and the CC50 is more than 100 µM. Besides, the EC50 in series [5] came out at 2.59 µM.

Take `CCC(C)CNCC(=O)N1CCc2ccc(Cl)cc2C1c1ccccc1` (stereo not drawn) [Compound 45, 1-(7-Chloro-1-phenyl-3,4-dihydroisoquinolin-2(1H)-yl)-2-((2-methylbutyl)amino)ethan-1-one]: in series [2], at 25 µM the inhibition was 89 ± 3%, the inhibition at 50 µM turned out to be 93 ± 3%, the LLEAcyl-cLIP is recorded as 2.43 and the IC50 was 4.22 µM. Also, in series [3], the CC50 at 72 h turned out to be 15.4 µM; the viability at 72 h, 12.5 µM was 70 ± 3%; the viability at 72 h, 25 µM came to 14 ± 4%. Also, in series [4], the “toxicity to HEK293a SHH+ cells” value is reported as “toxic” and the “decrease in cell viability / cell survival” value was less than 30%. In addition, the EC50 in series [5] was 6.44 µM.
